Assay results as given in patent publication US12398154B2, “Azaquinazoline pan-KRas inhibitors” (Mirati Therapeutics, Inc., priority 2020, dated 2025).
pIC50: −log10 of the molar value.

What was measured:
[1] = target: KRas G12R (Homo sapiens, UniProt P01116, G12R); experiment: biochemical;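 note: TR-FRET displacement assay of compound binding to KRas, read after one hour at room temperature, potency from a four-parameter fit of percent-of-control values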
Protocol: (§2) The ability of a compound to bind to KRas was measured using a TR-FRET displacement assay. […] After a 60-minute incubation at room temperature, the reaction was measured using a BMG LABTECH CLARIO star Plus via TR-FRET. […] The POC values were fit to a 4-parameter IC50 equation and the IC50 value reported.

[2] = tested on: pERK in MKN1 cells; experiment: Inhibition of KRas phosphorylation of ERK (Cisbio HTRF pERK assay); conditions: Homo sapiens, MKN-1, 3 h, read-out: Inhibition (HTRF IC50) of KRas-mediated Phosphorylation of ERK, MKN1
[3] = tested on: pERK in H727 cells; experiment: as above; conditions: Homo sapiens, NCI-H727, read-out: Inhibition (HTRF IC50) of KRas-mediated Phosphorylation of ERK, H727
[4] = tested on: pERK in HCT116 cells; experiment: as above; conditions: Homo sapiens, HCT-116, read-out: Inhibition (HTRF IC50) of KRas-mediated Phosphorylation of ERK, HCT116
Protocol: (§3) To harvest cells from flask using 0.05% Trypsin/EDTA solution. Add 10 mL of media to stop trypsinizing. Pipette the cells into a conical bottom 50 mL centrifuge tube and centrifuge 5 min×1000 rpm. • 2. Re-suspend the cell pellet in media, take a cell count, and then adjust the cell density using fresh media. • 3. Seed 6,000 cells into cell culture plate with 50 μL media. […] Incubate cell plate overnight in a 37° C., 5% CO2 incubator. • Compound titrations • 1. Use Tecan to complete the compound addition. Compounds start from 10 uM top, 3-fold dilution, and 10 doses. The final DMSO concentration is 0.8%. Dispensed 0.2 uM Trametinib as Min control. • 2. Incubate cell plate for 3 hrs in the incubator. • Detection with cisbio pERK HTRF kit • 1. […] At the end of the compound treatment, flick-off the media. • 3. Add 35 μL of lysis buffer per well using a Multidrop Combi. Then place on a plate agitator shaking at 300 rpm at 4° C. for 40 mins. • 4. Make up the HTRF antibody buffer. For each assay plate, mix 50 μL of d2-conjugate antibody with 950 μL of detection buffer. Similarly, mix 50 μL of Cryptate antibody with 950 μL of detection buffer. Then mix the two diluted antibodies together. • 5. Dispense 3.4 μL the antibody buffer to wells of an empty assay plate. Seal the plate and centrifuge plate 30 sec×1000 rpm. • 6. At the end of the 4° C. lysis, centrifuge the lysate plates 3 mins×1500 rpm. • 7. Use the Bravo to transfer 13.6 μL of lysate from cell culture plate to assay plate.
(§4) Then incubate assay plate for 2 hrs at room temperature. […] At the end of incubation, read plate on the Envision after centrifuging plate 30 sec× • 1000 rpm.

[5] = tested on: pERK in PSN1 cells; experiment: as above; conditions: Homo sapiens, PSN1, 3 h, read-out: Inhibition (HTRF IC50) of KRas-mediated Phosphorylation of ERK, PSN1
Protocol: as §3, §4

[6] = target: KRas G12D (Homo sapiens, UniProt P01116, G12D); experiment: biochemical;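 note: TR-FRET displacement binding assay on KRas, read after a one-hour incubation at room temperature, IC50 fitted from percent-of-control values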
Sequence of KRas G12D (P01116 1-169 isoform P01116-2 G12D): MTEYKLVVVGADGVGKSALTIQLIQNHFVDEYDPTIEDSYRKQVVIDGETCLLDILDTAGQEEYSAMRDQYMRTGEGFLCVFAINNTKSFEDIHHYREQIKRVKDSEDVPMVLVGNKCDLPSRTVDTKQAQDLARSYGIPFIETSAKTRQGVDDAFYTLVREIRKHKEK
Protocol: as §2

[7] = tested on: pERK in ASPC1 cells; experiment: Inhibition of KRas phosphorylation of ERK (Cisbio HTRF pERK assay); conditions: Homo sapiens, ASPC1, read-out: Inhibition (HTRF IC50) of KRas-mediated Phosphorylation of ERK, AsPC-1
[8] = tested on: pERK in H460 cells; experiment: as above; conditions: Homo sapiens, NCI-H460, read-out: Inhibition (HTRF IC50) of KRas-mediated Phosphorylation of ERK, H460
[9] = target: KRas G12V (Homo sapiens, UniProt P01116, G12V); experiment: biochemical;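 note: KRas binding measured by TR-FRET displacement at room temperature, IC50 fitted from percent of control values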
Sequence of KRas G12V (P01116 1-169 isoform P01116-2 G12V): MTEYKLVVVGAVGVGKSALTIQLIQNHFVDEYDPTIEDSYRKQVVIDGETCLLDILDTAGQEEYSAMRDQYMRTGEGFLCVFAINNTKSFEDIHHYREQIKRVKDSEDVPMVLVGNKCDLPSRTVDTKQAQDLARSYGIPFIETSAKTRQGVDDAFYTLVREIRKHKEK
Protocol: as §2

[10] = tested on: pERK in H358 cells; experiment: Inhibition of KRas phosphorylation of ERK (Cisbio HTRF pERK assay); conditions: Homo sapiens, NCI-H358, read-out: Inhibition (HTRF IC50) of KRas-mediated Phosphorylation of ERK, H358
[11] = tested on: phospho-ERK in AsPC-1 (G12D) cells; experiment: Inhibition of KRas-mediated phosphorylation of ERK (in-cell western); format: cell-based; conditions: Homo sapiens, ASPC1, 3 h, 3 hours compound, phospho-ERK normalized to GAPDH
How it was run: (§1)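 IC50 came from 4-parameter dose-response fits of phospho-ERK (Thr202/Tyr204)/GAPDH signal, expressed as % DMSO control. Compounds were applied for 3 h at 0.5% DMSO before fixation, methanol permeabilization and antibody imaging by in-cell western.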

[12] = tested on: phospho-ERK in NCI-H727 (G12V) cells; experiment: as above; format: cell-based; conditions: Homo sapiens, NCI-H727, 3 h, 3 hours compound, phospho-ERK normalized to GAPDH
How it was run: as §1

[13] = tested on: phospho-ERK in NCI-H460 (Q61H) cells; experiment: as above; format: cell-based; conditions: Homo sapiens, NCI-H460, 3 h, 3 hours compound, phospho-ERK normalized to GAPDH
How it was run: as §1

[14] = tested on: pERK in A549 cells; experiment: Inhibition of KRas phosphorylation of ERK (Cisbio HTRF pERK assay); conditions: Homo sapiens, A549, read-out: Inhibition (HTRF IC50) of KRas-mediated Phosphorylation of ERK, A549

Sequence of KRas G12R (P01116 1-169 isoform P01116-2 G12R): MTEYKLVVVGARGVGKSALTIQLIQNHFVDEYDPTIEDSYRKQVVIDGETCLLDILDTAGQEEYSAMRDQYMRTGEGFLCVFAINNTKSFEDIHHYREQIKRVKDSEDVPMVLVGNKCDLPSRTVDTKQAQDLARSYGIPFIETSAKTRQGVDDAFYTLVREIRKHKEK

Row | Structure (SMILES) | pIC50 [1] | pIC50 [2] | pIC50 [3] | pIC50 [4] | pIC50 [5] | pIC50 [6] | pIC50 [7] | pIC50 [8] | pIC50 [9] | pIC50 [10] | IC50 [11] [nM] | IC50 [12] [nM] | IC50 [13] [nM] | pIC50 [14]
1 | CCc1c(F)ccc2cc(O)cc(-c3ncc4c(N5CCCC(O)CC5)nc(OC[C@@]56CCCN5C[C@H](F)C6)nc4c3F)c12 (stereo in doubt) [Example 346, 1-(7-(8-ethyl-7-fluoro-3-hydroxynaphthalen-1-yl)-8-fluoro-2-(((2R,7aS)-2-fluorohexahydro-1H-pyrrolizin-7a-yl)methoxy)pyrido[4,3-d]pyrimidin-4-yl)azepan-4-ol] | ≥ 8.70 | 7.96 | 6.95 | 6.88 | 5.13 | ≥ 8.70 | 7.00 | 6.78 | ≥ 8.70 | 7.24 | – | – | – | –
2 | CCc1c(F)ccc2cc(O)cc(-c3ncc4c(N5CCOCC(O)C5)nc(OC[C@@]56CCCN5C[C@H](F)C6)nc4c3F)c12 (stereo partly drawn) [Example 345, 4-(7-(8-ethyl-7-fluoro-3-hydroxynaphthalen-1-yl)-8-fluoro-2-(((2R,7aS)-2-fluorotetrahydro-1H-pyrrolizin-7a(5H)-yl)methoxy)pyrido[4,3-d]pyrimidin-4-yl)-1,4-oxazepan-6-ol] | – | 7.89 | 6.86 | 6.53 | 5.06 | – | 7.08 | 7.09 | – | 7.70 | – | – | – | –
3 | O=C1NC(=O)C2(CCCN(c3nc(OC[C@@]45CCCN4C[C@H](F)C5)nc4c(F)c(-c5cc(O)cc6ccc(F)c(F)c56)ncc34)C2)N1 (stereo partly drawn) [Example 444, 7-(7-(7,8-difluoro-3-hydroxynaphthalen-1-yl)-8-fluoro-2-(((2R,7aS)-2-fluorohexahydro-1H-pyrrolizin-7a-yl)methoxy)pyrido[4,3-d]pyrimidin-4-yl)-1,3,7-triazaspiro[4.5]decane-2,4-dione] | ≥ 8.70 | 7.43 | 5.94 | 5.75 | ≤ 5.00 | 8.30 | 5.77 | 5.81 | ≥ 8.70 | – | 2440 | 1740 | 656 | 6.13
4 | O=C1CC2(CCCN(c3nc(OC[C@@]45CCCN4C[C@H](F)C5)nc4c(F)c(-c5cc(O)cc6ccc(F)c(F)c56)ncc34)C2)N1 (stereo partly drawn) [Example 452, 6-(7-(7,8-difluoro-3-hydroxynaphthalen-1-yl)-8-fluoro-2-(((2R,7aS)-2-fluorohexahydro-1H-pyrrolizin-7a-yl)methoxy)pyrido[4,3-d]pyrimidin-4-yl)-1,6-diazaspiro[3.5]nonan-2-one] | ≥ 8.70 | 7.39 | 6.78 | 5.82 | 5.39 | 8.40 | 6.69 | 6.19 | ≥ 8.70 | – | 182 | 793 | 154 | 6.65
5 | CCc1c(F)ccc2cc(O)cc(-c3ncc4c(N5CCCC6(COC(=O)N6)C5)nc(OC[C@@]56CCCN5C[C@H](F)C6)nc4c3F)c12 (stereo partly drawn) [Example 478, 7-(7-(8-ethyl-7-fluoro-3-hydroxynaphthalen-1-yl)-8-fluoro-2-(((2R,7aS)-2-fluorohexahydro-1H-pyrrolizin-7a-yl)methoxy)pyrido[4,3-d]pyrimidin-4-yl)-3-oxa-1,7-diazaspiro[4.5]decan-2-one] | 8.30 | 7.10 | 6.06 | 5.26 | ≤ 5.00 | ≥ 8.70 | 6.72 | 6.15 | ≥ 8.70 | – | – | – | – | 5.90
6 | CCc1c(F)ccc2cc(O)cc(-c3ncc4c(N5CCOCC6(COC6)C5)nc(OC[C@@]56CCCN5C[C@H](F)C6)nc4c3F)c12 [Example 480, 5-ethyl-6-fluoro-4-(8-fluoro-2-(((2R,7aS)-2-fluorohexahydro-1H-pyrrolizin-7a-yl)methoxy)-4-(2,6-dioxa-9-azaspiro[3.6]decan-9-yl)pyrido[4,3-d]pyrimidin-7-yl)naphthalen-2-ol] | 8.22 | 8.22 | 7.00 | 6.95 | ≤ 5.00 | 7.42 | 6.62 | 7.33 | 8.15 | – | – | – | – | 6.67
7 | CCc1c(F)ccc2cc(O)cc(-c3ncc4c(N5C[C@H](O)CC[C@@H](O)C5)nc(OC[C@@]56CCCN5C[C@H](F)C6)nc4c3F)c12 [Example 490, (3R,6R)-1-(7-(8-ethyl-7-fluoro-3-hydroxynaphthalen-1-yl)-8-fluoro-2-(((2R,7aS)-2-fluorohexahydro-1H-pyrrolizin-7a-yl)methoxy)pyrido[4,3-d]pyrimidin-4-yl)azepane-3,6-diol] | 8.52 | 7.39 | 6.69 | 6.43 | ≤ 5.00 | ≥ 8.70 | 6.40 | 6.52 | ≥ 8.70 | – | – | – | – | 6.53
8 | CCc1c(F)ccc2cc(O)cc(-c3ncc4c(N5CCOCC(OC)C5)nc(OC[C@@]56CCCN5C[C@H](F)C6)nc4c3F)c12 (stereo partly drawn) [Example 499, 5-ethyl-6-fluoro-4-(8-fluoro-2-(((2R,7aS)-2-fluorotetrahydro-1H-pyrrolizin-7a(5H)-yl)methoxy)-4-(6-methoxy-1,4-oxazepan-4-yl)pyrido[4,3-d]pyrimidin-7-yl)naphthalen-2-ol] | 8.22 | 7.89 | 7.00 | 6.32 | ≤ 5.00 | 7.57 | 6.96 | 6.79 | 8.10 | – | – | – | – | 6.84
9 | CCc1c(F)ccc2cc(O)cc(-c3ncc4c(N5CCCn6nc(C(=O)N(C)C)c(F)c6C5)nc(OC[C@@]56CCCN5C[C@H](F)C6)nc4c3F)c12 [Example 505, 5-(7-(8-ethyl-7-fluoro-3-hydroxynaphthalen-1-yl)-8-fluoro-2-(((2R,7aS)-2-fluorohexahydro-1H-pyrrolizin-7a-yl)methoxy)pyrido[4,3-d]pyrimidin-4-yl)-3-fluoro-N,N-dimethyl-5,6,7,8-tetrahydro-4H-pyrazolo[1,5-a][1,4]diazepine-2-carboxamide] | ≥ 8.70 | 7.51 | 7.30 | – | ≤ 5.00 | ≥ 8.70 | 7.85 | 6.49 | ≥ 8.70 | 7.80 | – | – | – | –
10 | CCc1c(F)ccc2cc(O)cc(-c3ncc4c(N5CCCC6(CCC(F)(F)C6)C5)nc(OC[C@@]56CCCN5C[C@H](F)C6)nc4c3F)c12 (stereo partly drawn) [Example 509, 4-(4-(2,2-difluoro-7-azaspiro[4.5]decan-7-yl)-8-fluoro-2-(((2R,7aS)-2-fluorohexahydro-1H-pyrrolizin-7a-yl)methoxy)pyrido[4,3-d]pyrimidin-7-yl)-5-ethyl-6-fluoronaphthalen-2-ol] | 7.92 | 7.05 | 6.47 | 6.50 | 5.21 | 8.22 | 6.84 | 6.69 | 8.22 | – | – | – | – | 6.68
11 | CCc1c(F)ccc2cc(O)cc(-c3ncc4c(N5CCCC6(CCC(O)C6)C5)nc(OC[C@@]56CCCN5C[C@H](F)C6)nc4c3F)c12 (stereo partly drawn) [Example 510, 7-(7-(8-ethyl-7-fluoro-3-hydroxynaphthalen-1-yl)-8-fluoro-2-(((2R,7aS)-2-fluorotetrahydro-1H-pyrrolizin-7a(5H)-yl)methoxy)pyrido[4,3-d]pyrimidin-4-yl)-7-azaspiro[4.5]decan-2-ol] | 8.05 | 7.14 | 6.41 | 6.02 | 5.29 | 8.00 | 6.73 | 6.40 | 8.10 | – | – | – | – | 6.29
